Data on 20 compounds can be found in US11773127B2, “Compounds and methods for treating bacterial infections” (Washington University, priority 2017, dated 2023).

Read-outs that look alike come from different tables or passages of the source.

The test deals with T1, FmlHLD (Escherichia coli, UniProt P77588).
T1 construct: 6xHis (C); made in house; host or cells: E. coli C600, periplasm, pTRC99a
Kind of test: biochemical. Format: binding, E. coli. To be noted: for PI100 (percent inhibition): galactoside at 100 μM, 100 µM; for inhibitory potency against FmlH, in words: ELISA-based competition assay. The protocol:
Thereafter, wells were incubated with 200 μl blocking buffer (PBS+1% BSA) for 2 hours at 23° C., followed by incubation with 100 μl biotinylated FmlHLD diluted in blocking buffer to 20 μg/ml in the presence or absence of the tested compounds for 1 hr at 23° C. After washing 3× with PBS+0.05% TWEEN-20, 100 μl Streptavidin-HRP conjugate (BD Biosciences; 1:2000 dilution in blocking buffer) was added to each well for 1 hr at 23° C. After a final round of washing, plates were developed with 100 μl Tetramethylbenzidine (TMB, BD Biosciences) substrate, quenched within 1-2 min with 50 μl […], and absorbance measured at 450 nm.
Select top hit compounds and few low-scoring analogs from the virtual screening, as well as synthetic galactosides, were tested in the ELISA-based competition assay for their ability to inhibit binding of FmlHLD to ds-BSM. The ELISA assay was performed using the protocol described in Example 18. […] All compounds were tested at 100 μM; a subset was tested at 10 μM; and the strongest subset was additionally tested at 1 μM. […] Percent inhibition (PI) values are reported as the mean with standard error of the mean for galactosides tested at 100 μM (PI100), 10 μM (PI10), and 1 μM (PI1) in the ELISA-based competition assay. […] The “thio” designation indicates a sulfur linkage between the sugar and the aglycone group, the “phospho” designation indicates a phosphate group attached the C6-hydroxyl group on the sugar, and the “uro” designation indicates galacturonide as the sugar.
The ELISA assay was performed using the protocol described in Example 18. All compounds were tested at 1 μM and a subset was additionally tested at 100 nM. Average percent inhibition (PI) values are reported for compounds tested at 1 μM (PI1) and 100 nM (PI0.1).
Briefly, 1 μg bovine submaxillary mucin (Sigma) in 100 uL PBS were incubated with Immulon 4HBX 96-well plates overnight prior to treatment with 1 mU Arthrobacter ureafaciens sialidase for 1 hour at 37° C. to remove terminal sialic acid sugars. Wells were then blocked with 200 μL PBS+1% BSA for 2 hours at room temperature. Biotinylated FmlH^LD was diluted to 20 μg/mL in blocking buffer and incubated in the presence or absence of compounds serially diluted 2× down eight rows for 1 hour at room temperature. Wells were washed three times with PBS 0.05% TWEEN-20 then incubated with 100 μL of streptavidin-HRP conjugate (BD Biosciences; 1:2,000 dilution in blocking buffer) for one hour. After three additional PBS+0.05% TWEEN washes, plates were developed with 100 μL of tetramethylbenzidine (BD Biosciences) substrate and quenched with 50 μL of 1 M H2SO4. Total bound portion concentration was measured by the absorbance at 450 nm. IC50s were determined using the Graphpad Prism software.
The compounds synthesized herein were tested in the ELISA-based competition assay for their ability to inhibit binding of FmlHLD to ds-BSM. The ELISA assay was performed using the protocol described in Example 18. Compounds were tested at […], 1 μM, and 100 nM. as indicated on the table. […] ND means the corresponding value was not determined for this summary (but may be available elsewhere in the Examples).

Where [1] appears, read: read-out: % Inhibition at [μM] [1], compound at 1 μM, inhibition of FmlHLD binding to ds-BSM.
Where [2] appears, read: read-out: % Inhibition at [μM] [10], compound at 10 μM, inhibition of FmlHLD binding to ds-BSM.
[3] abbreviates: read-out: % Inhibition at [μM] [100], compound at 100 μM, inhibition of FmlHLD binding to ds-BSM.
The mark [4] stands for this setting: IC50 (μM), Table 5, Gal and GalNAc inhibition of FmlH.
Where [5] appears, read: read-out: PI (0.1) (average percent inhibition), compound at 100 nM, Table 4.
The mark [6] stands for this setting: read-out: PI(1) (average percent inhibition), compound at 1 μM, Table 4.
[7] abbreviates: IC50 (μM), Table 6, sulfonamides 3078-3090.
Where [8] appears, read: mean with standard error of the mean.
[9] abbreviates: read-out: PI10 (percent inhibition), galactoside at 10 μM, mean with standard error of the mean.
[10] abbreviates: read-out: PI100 (percent inhibition), galactoside at 100 μM, mean with standard error of the mean.

T1 sequence (P77588 25-182): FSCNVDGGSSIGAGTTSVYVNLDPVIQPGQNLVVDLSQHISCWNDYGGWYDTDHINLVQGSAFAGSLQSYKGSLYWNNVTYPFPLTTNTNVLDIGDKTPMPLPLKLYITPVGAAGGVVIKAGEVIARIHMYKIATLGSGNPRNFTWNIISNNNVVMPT

`CC(=O)N[C@H]1[C@H](Oc2ccccc2[N+](=O)[O-])O[C@H](CO)[C@H](O)[C@@H]1O` [ONPG-NAc]: the inhibition at 1 µM under setting [1] is 22.4%. Further, the inhibition at 10 µM under setting [2] was 87.2%. For the same compound, under setting [3], the inhibition at 100 µM stood at 99.4%.

For `O=C(O)c1cc(-c2ccccc2O[C@@H]2O[C@H](CO)[C@H](O)[C@H](O)[C@H]2O)cc([N+](=O)[O-])c1` [AM2050, 5-nitro-2′-(((2S,3R,4S,5R,6R)-3,4,5-trihydroxy-6-(hydroxymethyl)tetrahydro-2H-pyran-2-yl)oxy)-[1,1′-biphenyl]-3-car oxylic acid], where the note is “2038 vs 2043, 2050 vs 3029”, the “potency relative to matched pair Gal/GalNAc derivative” value amounted to 6 fold. Moreover, the IC50 by setting is: under setting [4], 0.28 µM; (IC50, inhibition of FmlHLD binding to ds-BSM) 0.418 µM. Also, the inhibition at 0.1 µM worked out at 7.6% (read-out: % Inhibition at [μM] [0.1], compound at 0.1 μM (100 nM), inhibition of FmlHLD binding to ds-BSM) and 7.6% under setting [5]. For the same compound, the inhibition at 1 µM is, setting by setting: under setting [1], 68%; under setting [6], 68%.

For the compound `CC(=O)N[C@@H]1[C@H](Oc2cccc(C(=O)O)c2-c2cccc(NS(C)(=O)=O)c2)OC(CO)[C@H](O)[C@@H]1O` (stereo partly drawn) [Compound 3082, 6-(((2S,3S,4R,5R)-3-acetamido-4,5-dihydroxy-6-(hydroxymethyl)tetrahydro-2H-pyran-2-yl)oxy)-3′-(methylsulfonamido)-[1,1′-biphenyl]-2-carboxylic acid], the half-maximal inhibitory concentration (IC50) under setting [7] was 0.13 µM.

For `OC[C@H]1O[C@@H](Oc2cccc(-c3ccccc3)c2)[C@H](O)[C@@H](O)[C@H]1O` [Compound 31β, [1,1′-biphenyl]-3-yl α/β-D-galactopyranoside], the “PI100 (percent inhibition)” value under setting [8] was 56.9 ± 6.2%. For the same compound, the inhibition at 10 µM under setting [9] is 7.8 ± 5.5%. The inhibition at 100 µM under setting [10] came to 57%.

On to `O=c1ccc2nc3ccc(O[C@@H]4O[C@H](CO)[C@H](O)[C@H](O)[C@H]4O)cc3oc-2c1` [Compound 15β, Resorufin galactoside], for which, under setting [8], the “PI100 (percent inhibition)” value worked out at 80.4 ± 6.6%. For the same compound, under setting [9], the inhibition at 10 µM was determined as 24 ± 3.2%. Further, the inhibition at 100 µM under setting [10] came to 80%.

As to `N#Cc1ccccc1O[C@H]1O[C@H](CO)[C@H](O)[C@H](O)[C@H]1O` [Compound 3α, 2-cyanophenyl α/β-D-galactopyranoside], under setting [10], the inhibition at 100 µM was found to be 17.8 ± 6.3%.

On to `COc1cc(-c2[o+]c3cc(O)cc(O)c3cc2O[C@@H]2O[C@H](CO)[C@H](O)[C@H](O)[C@H]2O)ccc1O` [PeoG, reference compound], for which the inhibition at 100 µM under setting [3] came out at 3.64%.

Regarding `OC[C@H]1O[C@@H](SCCc2ccccc2)[C@H](O)[C@@H](O)[C@H]1O` [2-phenylethyl-thio-galactoside, reference compound], under setting [2], the inhibition at 10 µM was determined as 2.31%. For the same compound, the inhibition at 100 µM under setting [3] turned out to be 49.9%.

Take `CC(=O)N[C@H]1[C@H](Oc2ccccc2-c2cccc(C(F)(F)F)c2)O[C@H](CO)[C@H](O)[C@@H]1O` [AM2037, N-((2S,3R,4R,5R,6R)-4,5-dihydroxy-6-(hydroxymethyl)-2-((3′-(trifluoromethyl)-[1,1′-biphenyl]-2-yl)oxy)tetrahydro-2H-pyran-3-yl)acetamide]: the “inhibitory potency against FmlH, in words” value (“inhibitory potency” below) is given as “equal or slightly reduced potency”. Under setting [4], this compound yielded an IC50 of 1.51 µM. Also, the inhibition at 1 µM under setting [1] amounted to 15.7%. Under setting [6], the inhibition at 1 µM is 15.7%.

As to `Cc1ccccc1O[C@@H]1O[C@H](CO)[C@H](O)[C@H](O)[C@H]1O` [Compound 135b], under setting [1], the inhibition at 1 µM was determined as 1.81%. Also, the inhibition at 10 µM under setting [2] is 28.2%. For the same compound, the inhibition at 100 µM under setting [3] is 87.3%.

In the case of `COc1ccc(C(=O)O)cc1-c1ccccc1O[C@@H]1O[C@H](CO)[C@H](O)[C@H](O)[C@H]1NC(C)=O` [Compound 2051, 2′-(((2S,3R,4R,5R,6R)-3-acetamido-4,5-dihydroxy-6-(hydroxymethyl)tetrahydro-2H-pyran-2-yl)oxy)-6-methoxy-[1,1′-biphenyl]-3-carboxylic acid], the “inhibitory potency” value is on record as “weakest activity”. Under setting [4], this compound gave an IC50 of 3.87 µM. Moreover, the “drop in activity relative to 29β-NAc” value (IC50 ratio) is reported as 6 fold. Also, the inhibition at 0.1 µM under setting [5] is 0%. Under setting [6], the inhibition at 1 µM was 15.9%.

With `O=[N+]([O-])c1ccccc1O[C@@H]1O[C@H](CO)[C@H](O)[C@H](O)[C@H]1O` [ONPG, o-nitrophenyl β-galactoside, reference compound], the inhibition at 1 µM under setting [1] amounted to 14.2%. Under setting [2], the inhibition at 10 µM worked out at 31.1%. The inhibition at 100 µM under setting [3] came to 93%. In addition, under “soluble compound at 100 μM (0.1 mM)”, the “inhibition of FmlHLD binding to ds-BSM, in words” value is given as “more effectively than Gal, GalNAc, or TF”.

Consider `CC(=O)N[C@H]1[C@H](Oc2ccccc2-c2cccc(F)c2)O[C@H](CO)[C@H](O)[C@@H]1O` [AM2028, N-((2S,3R,4R,5R,6R)-2-((3′-fluoro-[1,1′-biphenyl]-2-yl)oxy)-4,5-dihydroxy-6-(hydroxymethyl)tetrahydro-2H-pyran-3-yl)acetamide], for which the “inhibitory potency” value is “equal or slightly reduced potency”. Moreover, 1.48 µM corresponded to half-maximal inhibition under setting [4] (IC50). The inhibition at 1 µM under setting [1] came out at 11.8%. Further, the inhibition at 1 µM under setting [6] was found to be 11.8%.

For the compound `OC[C@H]1O[C@@H](Oc2c[nH]c3ccccc23)[C@H](O)[C@@H](O)[C@H]1O` [3-indoxyl Gal, reference compound], under setting [3], the inhibition at 100 µM is 21.7%.

As to `Nc1ccc(O[C@@H]2O[C@H](CO)[C@H](O)[C@H](O)[C@H]2O)cc1` [4-amino-phenyl Gal, reference compound], the inhibition at 10 µM under setting [2] amounted to 9.8%. In addition, under setting [3], the inhibition at 100 µM turned out to be 65.1%.

On to `CC(=O)N[C@H]1[C@H](Oc2cccc3cccnc23)O[C@H](CO)[C@H](O)[C@@H]1O` [AM1176], for which the inhibition at 1 µM under setting [1] was 21% and the inhibition at 1 µM under setting [6] was 21%.

Regarding `CC(=O)N[C@H]1[C@H](Oc2ccccc2-c2cccc(C(N)=O)c2)O[C@H](CO)[C@H](O)[C@@H]1O` [AM2033, 2′-(((2S,3R,4R,5R,6R)-3-acetamido-4,5-dihydroxy-6-(hydroxymethyl)tetrahydro-2H-pyran-2-yl)oxy)-[1,1′-biphenyl]-3-carboxamide], the “inhibitory potency” value is recorded as “equal or slightly reduced potency”. Further, inhibition under setting [4] was half-maximal at 1.65 µM (IC50). The inhibition at 1 µM under setting [1] is 3.52%. For the same compound, under setting [6], the inhibition at 1 µM came to 3.52%.

Turning to `OC[C@H]1O[C@@H](Oc2ccc(-c3ccccc3)cc2)[C@H](O)[C@@H](O)[C@H]1O` [Compound 114bf2], under setting [3], the inhibition at 100 µM was 30%.

As for `CC(=O)N[C@H]1[C@H](Oc2cccc3ccc(C)nc23)O[C@H](CO)[C@H](O)[C@@H]1O` [AM1179, N-((2S,3R,4R,5R,6R)-4,5-dihydroxy-6-(hydroxymethyl)-2-((2-methylquinolin-8-yl)oxy)tetrahydro-2H-pyran-3-yl)acetamide], the inhibition at 1 µM reads like this: under setting [1], 25.2%; under setting [6], 25.2%.

As to `Cc1cccc(O[C@@H]2O[C@H](CO)[C@H](O)[C@H](O)[C@H]2NS(C)(=O)=O)c1-c1cccc(NS(C)(=O)=O)c1` [Compound 3089, N-((2S,3R,4R,5R,6R)-4,5-dihydroxy-6-(hydroxymethyl)-2-((6-methyl-3′-(methylsulfonamido)-[1,1′-biphenyl]-2-yl)oxy)tetrahydro-2H-pyran-3-yl)methanesulfonamide], under setting [7], the IC50 was 3.5 µM.
